51 compounds from ChEMBL document CHEMBL5308504, “Tm Shift (DSF) assay results for EUbOPEN Chemogenomics Library” (2023) can be followed below.

Assay [1] deals with Fibroblast growth factor receptor 3 (Homo sapiens) (UniProt P22607). The following applies: Compound concentration 20.0 uM, Protein concentration 2.0 uM, Result type QC Liability.
Description: Thermal Shift Assay. Domain: start/stop: P449-E759
The target in assay [2] is T1, Peregrin (Homo sapiens) (UniProt P55201).
T1 sequence (whole entry): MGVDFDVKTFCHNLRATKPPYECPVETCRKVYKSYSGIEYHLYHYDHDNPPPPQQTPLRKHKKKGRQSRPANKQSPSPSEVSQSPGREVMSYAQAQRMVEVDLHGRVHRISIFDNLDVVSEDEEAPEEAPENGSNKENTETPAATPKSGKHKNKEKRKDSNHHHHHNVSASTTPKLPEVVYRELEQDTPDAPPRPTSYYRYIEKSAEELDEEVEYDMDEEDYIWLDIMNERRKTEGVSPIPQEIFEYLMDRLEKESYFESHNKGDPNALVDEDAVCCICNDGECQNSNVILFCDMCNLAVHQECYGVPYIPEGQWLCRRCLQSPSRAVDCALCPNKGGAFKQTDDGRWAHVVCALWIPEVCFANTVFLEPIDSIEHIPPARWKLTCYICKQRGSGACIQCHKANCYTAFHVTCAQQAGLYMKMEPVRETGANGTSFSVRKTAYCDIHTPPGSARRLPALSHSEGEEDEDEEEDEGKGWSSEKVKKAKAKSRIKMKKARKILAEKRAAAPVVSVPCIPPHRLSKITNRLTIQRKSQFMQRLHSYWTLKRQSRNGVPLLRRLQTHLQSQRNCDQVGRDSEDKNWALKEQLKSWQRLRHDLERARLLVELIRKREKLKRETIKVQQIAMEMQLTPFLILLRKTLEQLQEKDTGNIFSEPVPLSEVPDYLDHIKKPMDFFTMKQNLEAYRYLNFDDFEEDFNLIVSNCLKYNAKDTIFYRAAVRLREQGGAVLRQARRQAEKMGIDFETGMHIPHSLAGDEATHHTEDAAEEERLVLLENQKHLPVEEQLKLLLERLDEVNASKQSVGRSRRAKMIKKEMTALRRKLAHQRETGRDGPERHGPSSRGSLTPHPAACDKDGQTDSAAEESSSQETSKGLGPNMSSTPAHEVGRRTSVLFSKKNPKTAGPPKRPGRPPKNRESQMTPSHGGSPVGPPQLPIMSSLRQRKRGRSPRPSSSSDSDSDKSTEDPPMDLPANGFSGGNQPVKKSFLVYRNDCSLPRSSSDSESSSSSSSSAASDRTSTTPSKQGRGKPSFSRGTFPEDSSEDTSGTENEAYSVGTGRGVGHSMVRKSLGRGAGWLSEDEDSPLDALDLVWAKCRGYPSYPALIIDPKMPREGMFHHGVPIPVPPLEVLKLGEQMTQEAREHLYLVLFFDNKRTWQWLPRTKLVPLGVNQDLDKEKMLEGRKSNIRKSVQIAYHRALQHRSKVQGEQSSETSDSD
The following applies: Compound concentration 20.0 uM, Protein concentration 2.0 uM, Result type QC Liability.

Where “and” joins values, the source holds several entries; their conditions need not be identical. Equal entries are not always repeated.

Fibroblast growth factor receptor 3 (Homo sapiens), sequence (P22607 23-806 limits assumed): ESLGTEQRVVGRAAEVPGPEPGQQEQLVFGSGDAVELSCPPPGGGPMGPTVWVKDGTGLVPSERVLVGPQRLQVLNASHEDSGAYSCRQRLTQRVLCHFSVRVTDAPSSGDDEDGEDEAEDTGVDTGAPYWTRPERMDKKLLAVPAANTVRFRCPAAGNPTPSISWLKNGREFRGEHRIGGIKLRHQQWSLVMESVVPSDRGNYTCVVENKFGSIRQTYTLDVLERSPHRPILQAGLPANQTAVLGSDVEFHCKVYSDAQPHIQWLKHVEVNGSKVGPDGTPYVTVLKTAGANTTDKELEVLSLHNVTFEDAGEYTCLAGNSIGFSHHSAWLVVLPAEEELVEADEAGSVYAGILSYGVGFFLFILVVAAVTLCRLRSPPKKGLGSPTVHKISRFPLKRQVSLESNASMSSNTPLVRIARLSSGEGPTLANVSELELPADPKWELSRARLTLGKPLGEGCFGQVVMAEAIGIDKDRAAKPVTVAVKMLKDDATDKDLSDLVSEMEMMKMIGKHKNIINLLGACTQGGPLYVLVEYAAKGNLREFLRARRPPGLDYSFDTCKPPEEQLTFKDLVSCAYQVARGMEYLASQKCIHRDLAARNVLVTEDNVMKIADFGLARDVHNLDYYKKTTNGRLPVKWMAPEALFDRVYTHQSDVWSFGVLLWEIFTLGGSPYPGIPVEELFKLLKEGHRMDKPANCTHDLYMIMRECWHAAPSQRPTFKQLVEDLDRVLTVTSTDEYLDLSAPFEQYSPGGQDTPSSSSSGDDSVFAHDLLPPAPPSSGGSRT

For `Cc1cc(-c2cnc(N)c3c(-c4ccc5scnc5c4)csc23)n(C)n1`, the results for the ΔTm in assay [1] and in assay [2] were 0.89 °C and -1.57 °C, respectively.

Consider `COc1cc2ncnc(N[C@H](C)c3ccccc3)c2cc1OC1CCN(S(C)(=O)=O)CC1`, for which the ΔTm in assay [1] was 0.38 °C; in assay [2], -0.11 °C.

With `CN(C)CCCNc1ccnc(Nc2cccc(Cl)c2)n1`, the ΔTm in assay [1] was 1.43 °C; in assay [2], -1.77 °C.

For `O=C(O)CCn1c2c(c3ccccc31)C[C@H](NS(=O)(=O)c1ccc(F)cc1)CC2`, the ΔTm was 0.49 °C in assay [1] and -1.45 °C in assay [2].

Consider `CN1CCN(c2ccc(Nc3ncc4cc5n(c4n3)C3(CCCCC3)CNC5=O)nc2)CC1`, for which the ΔTm in assay [1] is 0.83 °C; in assay [2] it was -1.56 °C.

Take `Cc1cc(OC2CCS(=O)(=O)CC2)cc(C)c1-c1cccc(COc2ccc(CCC(=O)O)c(F)c2)c1`: the ΔTm in assay [1] is 0.31 °C; in assay [2], -4.37 °C.

Consider `CNc1ncc2cc(-c3ccc(-c4cccc(C)n4)cc3Cl)c(=O)n(C[C@H]3OC[C@H](N)CO3)c2n1`, for which the ΔTm in assay [1] is 1.85 °C; in assay [2], -2.41 °C.

With `CC(C)(C#Cc1ccc(NC(=O)COc2ccccc2C(=O)c2ccccc2)c(Cl)c1)C(=O)O`, the figures for the ΔTm in assay [1] and in assay [2] were 0.52 °C and -4.06 °C, respectively.

In the case of `Cc1cc(OCCC(C)(C)O)cc(C)c1-c1ccc(F)c2c1CC[C@H]2Oc1ccc2c(c1)OC[C@H]2CC(=O)O`, the ΔTm in assay [1] is -2.24 °C; in assay [2], -15.3 °C.

For `O=C(CNC(=O)c1ccc(-c2ccccc2)cc1)NC1CCCc2ccccc21` (stereo unspecified), the ΔTm in assay [1] is 0.59 °C; in assay [2], -4.59 °C.

For the compound `Cc1ccc(C(=O)Nc2cc(N3CCN(C)CC3)cc(C(F)(F)F)c2)cc1-n1cc(-c2cnn(C)c2C)nn1`, the values for the ΔTm in assay [1] and in assay [2] were 3.8 °C and -0.61 °C, respectively.

Regarding `Cn1cnc(Cn2ccc3ccc(CNCc4[nH]c5ccccc5c4[C@@H]4NC(=O)c5ccc(O)cc54)cc32)c1`, the ΔTm was 0.85 °C in assay [1] and -1.61 °C in assay [2].

Consider `O=C(O)CCCN1CCC[C@H]1COc1ccc(Oc2ccc(Cl)cc2)cc1`, for which the ΔTm in assay [1] is 0.41 °C; in assay [2], -3.24 °C.

With `CCOC(=O)N1CCC(CN(Cc2ccc(Cl)cc2)Cc2ccc([N+](=O)[O-])s2)C1` (stereo unspecified), the values for the ΔTm in assay [1] and in assay [2] were 0.35 °C and -2.07 °C, respectively.

Regarding `Cn1c(Nc2c(Cl)cccc2Cl)nc2ccc3nc[nH]c(=O)c3c21`, the ΔTm is 1.31 °C in assay [1] and -0.59 °C in assay [2].

As to `FC(F)(F)c1ccc(CNc2ccc(Cc3c[nH]c4ncc(Cl)cc34)cn2)cn1`, the ΔTm was 3.63 °C in assay [1] and -0.43 °C in assay [2].

Regarding `CN(CC(=O)Nc1ccc(F)c(F)c1F)C(=O)c1ccc2c(c1)OCCO2`, the results for the ΔTm in assay [1] and in assay [2] were 0.6 °C and -0.72 °C, respectively.

With `Cc1cc2c(cc(C(=O)N[C@H](CO)c3ccc(S(=O)(=O)CC(=O)O)cc3)n2C)c(Cl)c1Cl`, the ΔTm in assay [1] was 0.16 °C; in assay [2], -3.03 °C.

With `CN[C@@H](C)C(=O)N[C@H](C(=O)N1CCC[C@H]1C(=O)Nc1sc(-c2ncco2)nc1-c1ccccc1)C1CCCCC1`, the ΔTm in assay [1] is 0.43 °C; in assay [2] it was -1.67 °C.

As for `CCCN1CCC(C#N)(NC(=O)[C@H](CC(C)(C)C)NC(=O)N2CCOCC2)CC1`, the ΔTm is 0.37 °C in assay [1] and -2.18 °C in assay [2].

`Cc1cc(-c2nc(-c3ccc(OC(F)(F)F)cc3)no2)nn1Cc1ccnc(N2CCN(C3CC3)CC2)c1`: the values for the ΔTm in assay [1] and in assay [2] were 1.28 °C and -10.7 °C, respectively.

As for `CCOC(=O)/N=C(\N)c1ccc(OCc2cccc(COc3ccc(C(C)(C)c4ccc(OC(=O)OCC)cc4)cc3)c2)cc1`, the ΔTm is 0.54 °C in assay [1] and -8.55 °C in assay [2].

In the case of `CC(C)(C)OC(=O)CN(Cc1ccc(Cl)cc1)Cc1ccc([N+](=O)[O-])s1`, the ΔTm in assay [1] is 0.88 °C; in assay [2], -0.13 °C.

`CCCn1cc(-c2cc(C3C(=O)N(CC)c4ccc(C(F)(F)F)cc4N(c4ccccc4)C3=O)cc(OC)c2O)cn1` (stereo unspecified): the ΔTm is 0.46 °C in assay [1] and -1.21 °C in assay [2].

Consider `CN(C)[C@H]1CC[C@H](Nc2ncc3ncnc(Nc4ccc(F)c(Cl)c4)c3n2)CC1`, for which the ΔTm in assay [1] stood at 0.8 °C; in assay [2] it was 1.59 °C.

In the case of `Cc1nn(-c2nc3ccc(Cl)c(Cl)c3[nH]2)c(O)c1C1OC(=O)c2ccccc21` (stereo unspecified), the ΔTm in assay [1] was 0.7 °C; in assay [2], -3.79 °C.

As for `COc1cc2nc(-c3cc(F)ccc3O)nc(N[C@@H]3CNC[C@H]3C(C)(C)O)c2cc1OC`, the ΔTm in assay [1] came to 1.8 °C; in assay [2], 0.34 °C.

On to `N#C/C(=C\c1ccc(O)c(O)c1)C(=O)OCCc1cccs1`, for which the ΔTm in assay [1] was 1.51 °C; in assay [2], -0.27 °C.

Regarding `CN(C)C(=O)Cn1cc(-c2ccc(-c3nnc4ccccn34)cc2)cn1`, the ΔTm in assay [1] is 0.47 °C; in assay [2], -2.13 °C.

For the compound `COc1ccc2c(O[C@@H]3C[C@H]4C(=O)N[C@]5(C(=O)NS(=O)(=O)C6(C)CC6)CC5/C=C\CCCCC[C@H](NC(=O)c5ccn(C)n5)C(=O)N4C3)cc(OC(C)C)nc2c1C` (stereo partly specified), the ΔTm in assay [1] was 0.93 °C; in assay [2], -0.57 °C.

As to `O=C(O)c1cc2cc(Cc3cccnc3)ccc2o1`, the ΔTm is 0.96 °C in assay [1] and -2.16 °C in assay [2].

For the compound `O=c1cc(C2CCNCC2)n2nc3cccc(Cl)c3c2[nH]1`, the ΔTm was 0.45 °C in assay [1] and -1.18 °C in assay [2].

As to `COc1nc2ccc([C@@](O)(c3ccccc3)C3CCN(C(C)=O)CC3)cc2c(Cl)c1Cc1ccc(-n2cccn2)cc1`, the ΔTm was 5.87 °C in assay [1] and -1.27 °C in assay [2].

With `CNCc1ccc(-c2cc(-c3nc(-c4ccc(S(=O)(=O)C(C)C)cc4)cnc3N)on2)cc1`, the ΔTm in assay [1] was -1.35 °C; in assay [2], -0.8 °C.

On to `CN1CCN(C(=O)c2ccc(N(C)c3ncc(C(F)(F)F)c(N[C@@H]4CCC[C@@H]4C(N)=O)n3)cc2)CC1`, for which the ΔTm is 0.46 °C in assay [1] and -2.51 °C in assay [2].

As for `Nc1nc(-c2nn(Cc3ccccc3F)c3ncccc23)ncc1C1CC1`, the ΔTm is 1.14 °C in assay [1] and -2.28 °C in assay [2].

On to `Cn1cc(-c2ccc(-c3cncc(Cl)c3N3CCC4(CCNC4=O)CC3)cc2)cn1`, for which the values for the ΔTm in assay [1] and in assay [2] were 0.5 °C and -1.65 °C, respectively.

`Cc1ncsc1-c1ccc(CNC(=O)[C@@H]2C[C@@H](O)CN2C(=O)[C@@H](NC(=O)C2(F)CC2)C(C)(C)C)c(OCCOc2ccc(CN3CCN(c4cc(-c5ccccc5O)nnc4N)CC3)cc2)c1`: the ΔTm was -0.75 °C in assay [1] and 5.55 °C in assay [2].

On to `COc1nc2ccc([C@@](O)(c3ccc(Cl)cc3)c3cncn3C)cc2c(Cl)c1Cc1ccc(-n2cccn2)cc1`, for which the figures for the ΔTm in assay [1] and in assay [2] were -1.77 °C and -1.33 °C, respectively.

As to `CC(C)(C[C@H]1CN(S(=O)(=O)c2cccc(C(F)(F)F)c2)c2cc(-c3cc(F)cc(OC(F)F)c3)ccc2O1)C(=O)O`, the ΔTm was -0.98 °C in assay [1] and -3.42 °C in assay [2].

For the compound `CC(C)N(C(=O)C1CCOCC1)c1cc(F)c(Oc2ncc(Cn3nccn3)cc2C(F)(F)F)cc1C(=O)O`, the ΔTm in assay [1] was 0.39 °C; in assay [2], -3.32 °C.

As to `COCc1nc2cnc3cc(-c4c(C)noc4C)c(OC[C@H]4CCNC4)cc3c2n1[C@H](C)c1ccccc1`, the figures for the ΔTm in assay [1] and in assay [2] were 0.6 °C and -1.65 °C, respectively.

With `Nc1c(CC(=O)O)cccc1C(=O)c1ccc(Br)cc1`, the ΔTm in assay [1] was 0.57 °C; in assay [2] it was -2.36 °C.

Consider `COc1ccc(-c2c(-c3ccccc3)oc3ncnc(O[C@H](C)CCCCC(=O)O)c23)cc1`, for which the figures for the ΔTm in assay [1] and in assay [2] were -0.48 °C and -6.64 °C, respectively.

In the case of `O=C(O)c1cccc(C2=C(c3cc(Cl)ccc3OCc3ccc(F)cc3F)CCC2)n1`, the ΔTm was -0.33 °C in assay [1] and -5.87 °C in assay [2].

Consider `Cn1nc(-c2ccc(C(N)=O)cc2)c2ccccc2c1=O`, for which the ΔTm in assay [1] is 1.06 °C; in assay [2] it was -1.74 °C.

Regarding `CN(C)c1ncc2cc(-c3ccc(-c4ncccc4F)cc3Cl)c(=O)n(C[C@H]3OC[C@H](N)CO3)c2n1`, the ΔTm in assay [1] was -0.14 °C; in assay [2], -1.55 °C.

For `O=C(NCCN1CCC2(CC1)C(=O)NCN2c1cccc(F)c1)c1ccc2ccccc2c1`, the shift in melting temperature (ΔTm) in assay [1] was 0.36 °C; in assay [2], -3.2 °C.

Consider `O=C(Nc1cccc(C(F)(F)F)c1)c1cccc(-n2cc(-c3ccco3)nn2)c1`, for which the ΔTm in assay [1] was -0.75 °C; in assay [2], -8.11 °C.

Consider `CC(C)NC(=O)[C@H]1CCC[C@H]1Nc1nc(Nc2ccc(C(=O)N(C)C3CCN(C)CC3)cc2)ncc1Cl`, for which the ΔTm in assay [1] was 6.71 °C and 5.98 °C; in assay [2], -1.64 °C and -0.91 °C.

With `C/C=C1\C(=O)CC2C3CCC4=CC(=O)CC[C@]4(C)C3CC[C@]12C` (stereo partly specified), the ΔTm in assay [2] is -1.36 °C.
